The values below come from patent US20230365592A1 (Agios Pharmaceuticals, Inc., priority 2022, published 2023).

The first test deals with T1, human PAH with the R408W mutation (Homo sapiens, UniProt P00439, R408W).
T1 construct: expressed in transfected cells
T1 sequence (P00439 1-452 R408W): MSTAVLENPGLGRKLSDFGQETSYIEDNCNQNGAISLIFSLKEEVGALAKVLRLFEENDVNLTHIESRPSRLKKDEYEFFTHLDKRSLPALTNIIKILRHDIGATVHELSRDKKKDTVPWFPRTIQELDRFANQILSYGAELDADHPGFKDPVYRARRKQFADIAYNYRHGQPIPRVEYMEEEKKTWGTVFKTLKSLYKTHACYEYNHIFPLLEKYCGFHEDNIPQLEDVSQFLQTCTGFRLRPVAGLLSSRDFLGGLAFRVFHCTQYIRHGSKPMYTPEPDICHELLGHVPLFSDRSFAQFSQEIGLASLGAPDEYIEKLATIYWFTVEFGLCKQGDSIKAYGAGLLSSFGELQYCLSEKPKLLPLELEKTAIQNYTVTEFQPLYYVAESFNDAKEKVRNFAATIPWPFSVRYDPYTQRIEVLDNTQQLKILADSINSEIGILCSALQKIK
Briefly: Cell Based Phenylalanine Flux Assay.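 Also: after compound treatment, cells received sepiapterin plus isotope-labelled Phenylalanine for 4 hours, then labelled Tyrosine in the medium was quantified, 10-point 2-fold dilution series run in duplicate.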 The settings on record: A375 cells expressing R408W PAH; 24 hrs with compound, then 20 µM sepiapterin and 800 µM 13C9,15N-Phenylalanine for 4 hours; 13C-Tyrosine by LC-MS; average where tested multiple times; read-out: AC50.
As for `O=C(c1ocnc1C1CC1)N1CCc2[nH]cnc2C1c1cc2cccc(C(F)(F)F)n2n1` (centres unmarked), the AC50 was in the range of 1000 to 5000 nM.
In the case of `Cc1nnc(N2CCc3[nH]cnc3C2c2cc3cccc(C)n3n2)o1` (centres unmarked), the concentration at half-maximal activity (AC50) is 1000 to 5000 nM.
Still for that read-out and setting: under `O=C(c1cnc(-c2ccccn2)o1)N1CCc2[nH]cnc2C1c1cc2ccccn2n1` (centres unmarked) stands 1000 to 5000 nM.
With `Cc1ccn2nc(C3c4nc[nH]c4CCN3C(=O)c3nnc(C(C)(C)F)o3)cc2c1` (centres unmarked), the AC50 was more than 5000 nM.
For `Cn1cc(-c2nc(C3CC3)c(C(=O)N3CCc4[nH]cnc4C3c3cc4ccccn4n3)o2)cn1` (centres unmarked), the AC50 lay in the range of 1000 to 5000 nM.
As to `Cn1ncc(C(=O)N2CCc3[nH]cnc3[C@H]2c2cc3ccccn3n2)c1C(F)F` (single isomer, unassigned), the AC50 lay in the range of 1000 to 5000 nM.

Staying with this test, now noted: A375 cells expressing human PAH R408W; 24 hrs compound incubation; 13C-Tyrosine by LC-MS; average where tested multiple times; read-out: AC50.
With `O=C(c1nnc(-c2cnccn2)o1)N1CCc2[nH]cnc2[C@@H]1c1cc2c(OC(F)F)cccn2n1` [Example 2449, (R)-(4-(4-(difluoromethoxy)pyrazolo[1,5-a]pyridin-2-yl)-6,7-dihydro-1H-imidazo[4,5-c]pyridin-5(4H)-yl)(5-(pyrazin-2-yl)-1,3,4-oxadiazol-2-yl)methanone], the half-maximal activity concentration (AC50) was more than 5000 nM.
Consider `O=C(c1ocnc1C1CC1)N1CCc2[nH]cnc2[C@H]1c1cc2cccc(C(F)F)n2n1` [Example 2112, (S)-(4-cyclopropyloxazol-5-yl)(4-(7-(difluoromethyl)pyrazolo[1,5-a]pyridin-2-yl)-1,4,6,7-tetrahydro-5H-imidazo[4,5-c]pyridin-5-yl)methanone], for which the concentration at half-maximal activity (AC50) fell in the range of 500 to 1000 nM.
For the compound `Cc1cccnc1-c1nnc(N2CCc3[nH]cnc3[C@@H]2c2cc3c(Cl)cccn3n2)o1` [Example 2286, (R)-2-(4-(4-chloropyrazolo[1,5-a]pyridin-2-yl)-1,4,6,7-tetrahydro-5H-imidazo[4,5-c]pyridin-5-yl)-5-(3-methylpyridin-2-yl)-1,3,4-oxadiazole], the half-maximal activity concentration (AC50) is more than 5000 nM.
As for `CC(C)c1cccn2nc([C@H]3c4nc[nH]c4CCN3C(=O)c3nnc(-c4ccccn4)o3)cc12` [Example 1904, (R)-(4-(4-isopropylpyrazolo[1,5-a]pyridin-2-yl)-1,4,6,7-tetrahydro-5H-imidazo[4,5-c]pyridin-5-yl)(5-(pyridin-2-yl)-1,3,4-oxadiazol-2-yl)methanone], the half-maximal activity concentration (AC50) was more than 5000 nM.
In the case of `COc1ccc2c(C(=O)N3CCc4[nH]cnc4[C@H]3c3cc4cccc(Cl)n4n3)cnn2c1` [Example 2464, (S)-(4-(7-chloropyrazolo[1,5-a]pyridin-2-yl)-6,7-dihydro-1H-imidazo[4,5-c]pyridin-5(4H)-yl)(6-methoxypyrazolo[1,5-a]pyridin-3-yl)methanone], the AC50 fell in the range of 1000 to 5000 nM.
The same measure, in the same setting: the result for `CC(C)c1cccn2nc([C@H]3c4nc[nH]c4CCN3c3nnc(C4CC4)o3)cc12` [Example 2168, (R)-2-cyclopropyl-5-(4-(4-isopropylpyrazolo[1,5-a]pyridin-2-yl)-1,4,6,7-tetrahydro-5H-imidazo[4,5-c]pyridin-5-yl)-1,3,4-oxadiazole] reads 1000 to 5000 nM; that for `O=C(c1nc2ccccc2o1)N1CCc2[nH]cnc2[C@@H]1c1cc2ccccn2n1` [Example 2049, (R)-benzo[d]oxazol-2-yl(4-(pyrazolo[1,5-a]pyridin-2-yl)-1,4,6,7-tetrahydro-5H-imidazo[4,5-c]pyridin-5-yl)methanone], more than 5000 nM; that for `O=C(c1nnc(-c2ccn(C(F)(F)F)n2)o1)N1CCc2[nH]cnc2[C@@H]1c1cc2c(C3CC3)cccn2n1` [Example 1881, (R)-(4-(4-cyclopropylpyrazolo[1,5-a]pyridin-2-yl)-1,4,6,7-tetrahydro-5H-imidazo[4,5-c]pyridin-5-yl)(5-(1-(trifluoromethyl)-1H-pyrazol-3-yl)-1,3,4-oxadiazol-2-yl)methanone], more than 5000 nM.
With `Fc1cccc(F)c1-c1nnc(N2CCc3[nH]cnc3[C@H]2c2cc3c(Cl)cccn3n2)o1` [Example 2063, (S)-2-(4-(4-chloropyrazolo[1,5-a]pyridin-2-yl)-1,4,6,7-tetrahydro-5H-imidazo[4,5-c]pyridin-5-yl)-5-(2,6-difluorophenyl)-1,3,4-oxadiazole], the half-maximal activity concentration (AC50) was less than 500 nM.

Staying with this test, now noted: A375 cells expressing human R408W PAH; 24 hrs compound incubation; 13C-Tyrosine by LC-MS; average where tested multiple times; read-out: AC50.
`COc1ccc(-c2nnc(C(=O)N3CCc4[nH]cnc4[C@@H]3c3cc4c(C(F)F)cccn4n3)o2)nc1` [Example 1425, (R)-(4-(4-(difluoromethyl)pyrazolo[1,5-a]pyridin-2-yl)-6,7-dihydro-1H-imidazo[4,5-c]pyridin-5(4H)-yl)(5-(5-methoxypyridin-2-yl)-1,3,4-oxadiazol-2-yl)methanone]: the half-maximal activity concentration (AC50) was 1000 to 5000 nM.
Consider `Cn1cc(-c2nnc(C(=O)N3CCc4[nH]cnc4[C@H]3c3cc4ccc(Cl)cn4n3)o2)cn1` [Example 696, (S)-(4-(6-chloropyrazolo[1,5-a]pyridin-2-yl)-6,7-dihydro-1H-imidazo[4,5-c]pyridin-5(4H)-yl)(5-(1-methyl-1H-pyrazol-4-yl)-1,3,4-oxadiazol-2-yl)methanone], for which the AC50 was less than 500 nM.
As to `CC(C)(C)c1nnc(C(=O)N2CCc3[nH]cnc3[C@H]2c2cc3cccc(Cl)n3n2)o1` [Example 1123, (S)-(5-(tert-butyl)-1,3,4-oxadiazol-2-yl)(4-(7-chloropyrazolo[1,5-a]pyridin-2-yl)-6,7-dihydro-1H-imidazo[4,5-c]pyridin-5(4H)-yl)methanone], the half-maximal activity concentration (AC50) was less than 500 nM.
On the same count and under the same terms, under `Cc1nc(C(C)(C)F)oc1C(=O)N1CCc2[nH]cnc2[C@@H]1c1cc2cccc(C)n2n1` [Example 1253, (R)-(2-(2-fluoropropan-2-yl)-4-methyloxazol-5-yl)(4-(7-methylpyrazolo[1,5-a]pyridin-2-yl)-6,7-dihydro-1H-imidazo[4,5-c]pyridin-5(4H)-yl)methanone] stands 1000 to 5000 nM; under `O=C(c1cnn2cc(C3CC3)ccc12)N1CCc2[nH]cnc2[C@H]1c1cc2c(C(F)F)cccn2n1` [Example 1742, (S)-(6-cyclopropylpyrazolo[1,5-a]pyridin-3-yl)(4-(4-(difluoromethyl)pyrazolo[1,5-a]pyridin-2-yl)-6,7-dihydro-1H-imidazo[4,5-c]pyridin-5(4H)-yl)methanone], less than 500 nM.
As for `Clc1cccn2nc([C@@H]3c4nc[nH]c4CCN3c3nnc(C4CC4)o3)cc12` [Example 1455, (S)-2-(4-(4-chloropyrazolo[1,5-a]pyridin-2-yl)-1,4,6,7-tetrahydro-5H-imidazo[4,5-c]pyridin-5-yl)-5-cyclopropyl-1,3,4-oxadiazole], the AC50 is less than 500 nM.
For the compound `FC(F)c1nnc(N2CCc3[nH]cnc3[C@H]2c2cc3c(Cl)cccn3n2)o1` [Example 1739, (S)-2-(4-(4-chloropyrazolo[1,5-a]pyridin-2-yl)-6,7-dihydro-1H-imidazo[4,5-c]pyridin-5(4H)-yl)-5-(difluoromethyl)-1,3,4-oxadiazole], the AC50 is less than 500 nM.
In the case of `O=C(CC1(O)CCC1)N1CCc2[nH]cnc2[C@@H]1c1cc2ccccn2n1` [Example 635, (R)-2-(1-hydroxycyclobutyl)-1-(4-(pyrazolo[1,5-a]pyridin-2-yl)-6,7-dihydro-1H-imidazo[4,5-c]pyridin-5(4H)-yl)ethanone], the half-maximal activity concentration (AC50) lay in the range of 1000 to 5000 nM.
With `Cc1ccn2nc([C@H]3c4nc[nH]c4CCN3C(=O)c3ocnc3C(F)F)cc2c1` [Example 1005, (R)-(4-(difluoromethyl)oxazol-5-yl)(4-(5-methylpyrazolo[1,5-a]pyridin-2-yl)-6,7-dihydro-1H-imidazo[4,5-c]pyridin-5(4H)-yl)methanone], the half-maximal activity concentration (AC50) was less than 500 nM.
`COc1ccc(-c2nnc(C(=O)N3CCc4[nH]cnc4[C@H]3c3cc4c(C(F)(F)F)cccn4n3)o2)nc1` [Example 932, (S)-(5-(5-methoxypyridin-2-yl)-1,3,4-oxadiazol-2-yl)(4-(4-(trifluoromethyl)pyrazolo[1,5-a]pyridin-2-yl)-6,7-dihydro-1H-imidazo[4,5-c]pyridin-5(4H)-yl)methanone]: the AC50 was less than 500 nM.
Take `Cn1ccc(-c2nnc(C(=O)N3CCc4[nH]cnc4[C@@H]3c3cc4ccc(C(F)(F)F)cn4n3)o2)n1` [Example 1129, (R)-(5-(1-methyl-1H-pyrazol-3-yl)-1,3,4-oxadiazol-2-yl)(4-(6-(trifluoromethyl)pyrazolo[1,5-a]pyridin-2-yl)-6,7-dihydro-1H-imidazo[4,5-c]pyridin-5(4H)-yl)methanone]: the AC50 lay within 1000 to 5000 nM.
The same measure, in the same setting: under `CC1(c2nnc(C(=O)N3CCc4[nH]cnc4[C@H]3c3cc4cccc(Cl)n4n3)o2)CC1` [Example 1296, (S)-(4-(7-chloropyrazolo[1,5-a]pyridin-2-yl)-6,7-dihydro-1H-imidazo[4,5-c]pyridin-5(4H)-yl)(5-(1-methylcyclopropyl)-1,3,4-oxadiazol-2-yl)methanone] stands less than 500 nM; under `Cn1nc(Cl)nc1C(=O)N1CCc2[nH]cnc2[C@H]1c1cc2c(Cl)cccn2n1` [Example 1054, (S)-(3-chloro-1-methyl-1H-1,2,4-triazol-5-yl)(4-(4-chloropyrazolo[1,5-a]pyridin-2-yl)-6,7-dihydro-1H-imidazo[4,5-c]pyridin-5(4H)-yl)methanone], less than 500 nM; under `O=C(c1cnn2ccccc12)N1CCc2[nH]cnc2[C@@H]1c1cc2ccccn2n1` [Example 601, (R)-(4-(pyrazolo[1,5-a]pyridin-2-yl)-6,7-dihydro-1H-imidazo[4,5-c]pyridin-5(4H)-yl)(pyrazolo[1,5-a]pyridin-3-yl)methanone], more than 5000 nM.

As usually defined, the AC50 is the concentration at which the activity in the assay is half-maximal.
